{"source": "ChEMBL document CHEMBL1649474", "about": "“Pharmacodynamics of levofloxacin in a murine pneumonia model of Pseudomonas aeruginosa infection: determination of epithelial lining fluid targets” (Antimicrob Agents Chemother, 2009)", "key": {"[1]": {"assay": "Volume of distribution in epithelial lining fluid of Swiss-Webster mouse infected with Pseudomonas aeruginosa at 200 mg/kg, ip administered as single dose", "assay_type": "ADME, organism-based", "design": "dose 200 mg/kg, route intraperitoneal", "settings": "in vivo"}, "[2]": {"assay": "Absorption rate constant in epithelial lining fluid of Swiss-Webster mouse infected with Pseudomonas aeruginosa at 200 mg/kg, ip administered as single dose", "assay_type": "ADME, organism-based", "design": "dose 200 mg/kg, route intraperitoneal", "settings": "in vivo"}, "Pseudomonas aeruginosa": {"system": "Pseudomonas aeruginosa", "assay": "Antimicrobial activity against Pseudomonas aeruginosa infected in Swiss-Webster mouse at 200 mg/kg, ip administered as single dose", "assay_type": "functional, organism-based", "design": "dose 200 mg/kg, route intraperitoneal"}, "[3]": {"assay": "Apparent clearance in epithelial lining fluid of Swiss-Webster mouse infected with Pseudomonas aeruginosa at 200 mg/kg, ip administered as single dose"}, "[4]": {"assay": "AUC in plasma of Swiss-Webster mouse infected with Pseudomonas aeruginosa at 200 mg/kg, ip administered as single dose", "assay_type": "ADME, organism-based", "design": "dose 200 mg/kg, route intraperitoneal"}, "[5]": {"assay": "Drug uptake in epithelial lining fluid of Swiss-Webster mouse infected with Pseudomonas aeruginosa at 200 mg/kg, ip administered as single dose", "assay_type": "ADME, organism-based", "design": "dose 200 mg/kg, route intraperitoneal", "settings": "in vivo"}, "[6]": {"assay": "AUC in epithelial lining fluid of Swiss-Webster mouse infected with Pseudomonas aeruginosa at 200 mg/kg, ip administered as single dose", "assay_type": "ADME, organism-based", "design": "dose 200 mg/kg, route intraperitoneal"}, "[7]": {"assay": "Apparent volume of distribution with respect to bioavailability in epithelial lining fluid of Swiss-Webster mouse infected with Pseudomonas aeruginosa at 200 mg/kg, ip administered as single dose", "assay_type": "ADME, organism-based", "settings": "read-out: Vc/F"}}, "data": [{"molecule": "C[C@H]1COc2c(N3CCN(C)CC3)c(F)cc3c(=O)c(C(=O)O)cn1c23.C[C@H]1COc2c(N3CCN(C)CC3)c(F)cc3c(=O)c(C(=O)O)cn1c23.O", "note": "[LEVOFLOXACIN]", "values": [{"measurement": "Vd", "setting": "[1]", "value": 0.024, "unit": "L"}, {"measurement": "Ka", "setting": "[2]", "value": 7.81, "unit": "h⁻¹"}, {"measurement": "EC50", "setting": "Pseudomonas aeruginosa", "value": 3.15, "unit": "µg/mL"}, {"measurement": "CL/F", "setting": "[3]", "value": 1.3, "unit": "mL/min"}, {"measurement": "AUC", "setting": "[4]", "value": 64000, "unit": "ng·h/mL"}, {"measurement": "Drug uptake", "setting": "[5]", "value": 77.7, "unit": "%"}, {"measurement": "AUC", "setting": "[6]", "value": 49800, "unit": "ng·h/mL"}, {"measurement": "Vd/F", "setting": "[7]", "value": 0.044, "unit": "L"}]}]}
